Results as given in ChEMBL document CHEMBL1165956, “Design, synthesis, and pharmacological evaluation of N-(4-mono and 4,5-disubstituted thiazol-2-yl)-2-aryl-3-(tetrahydro-2H-pyran-4-yl)propanamides as glucokinase activators” (Bioorg Med Chem, 2010).
Calls of active or inactive are those of the source. The rule behind the calls is not given here.

What was measured:
Hexokinase-4 [1] = target: T1, Hexokinase-4 (Homo sapiens, UniProt P35557); assay: Activation of human glucokinase expressed in Escherichia coli BL21(DE3) coexpressing G6PDH by spectrometry
T1 sequence (P35557 whole entry): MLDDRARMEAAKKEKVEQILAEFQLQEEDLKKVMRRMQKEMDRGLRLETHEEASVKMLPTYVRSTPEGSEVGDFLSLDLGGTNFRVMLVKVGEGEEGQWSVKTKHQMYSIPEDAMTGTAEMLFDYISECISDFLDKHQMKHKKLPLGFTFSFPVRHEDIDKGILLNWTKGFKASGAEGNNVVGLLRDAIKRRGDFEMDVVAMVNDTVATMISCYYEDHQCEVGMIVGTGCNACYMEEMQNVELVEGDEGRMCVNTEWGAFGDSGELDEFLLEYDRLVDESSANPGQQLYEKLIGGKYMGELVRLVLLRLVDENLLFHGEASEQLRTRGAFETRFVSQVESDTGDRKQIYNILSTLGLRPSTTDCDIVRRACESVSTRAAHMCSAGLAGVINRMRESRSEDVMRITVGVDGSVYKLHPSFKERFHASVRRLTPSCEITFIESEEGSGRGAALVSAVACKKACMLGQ

[2] = Oral bioavailability in dog; format: ADME, organism-based, Canis lupus familiaris; details: in vivo
[3] = Oral bioavailability in rat; format: ADME, organism-based; details: in vivo
Mus musculus [4] = assay: Hypoglycemic activity in non-diabetic ICR mouse assessed as decrease in blood glucose at 10 mg/kg, po administered as single dose measured after 240 mins relative to control; format: functional, organism-based; set-up: dose 10 mg/kg
Hexokinase-4 [5] = target: T2, Hexokinase-4 (Rattus norvegicus, UniProt P17712)
T2 sequence (P17712 whole entry): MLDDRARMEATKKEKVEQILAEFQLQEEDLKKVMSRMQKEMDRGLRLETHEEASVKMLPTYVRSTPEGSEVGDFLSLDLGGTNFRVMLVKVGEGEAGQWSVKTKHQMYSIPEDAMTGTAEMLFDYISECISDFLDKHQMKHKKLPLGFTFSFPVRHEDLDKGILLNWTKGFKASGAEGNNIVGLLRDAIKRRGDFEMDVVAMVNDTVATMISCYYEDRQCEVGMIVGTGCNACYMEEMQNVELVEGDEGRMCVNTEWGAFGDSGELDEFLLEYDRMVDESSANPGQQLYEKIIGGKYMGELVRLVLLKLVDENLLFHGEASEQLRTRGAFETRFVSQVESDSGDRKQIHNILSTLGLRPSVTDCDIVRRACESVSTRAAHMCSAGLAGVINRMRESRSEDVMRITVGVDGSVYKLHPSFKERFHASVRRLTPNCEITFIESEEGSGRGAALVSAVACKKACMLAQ
Description: Induction of glucokinase-mediated 2-deoxy-D-[3H]glucose uptake in Sprague-Dawley rat hepatocytes after 4 hrs by liquid scintillation countingl

Mus musculus [6] = assay: Hypoglycemic activity in non-diabetic ICR mouse assessed as decrease in blood glucose at 3 mg/kg, po administered as single dose measured after 30 mins relative to control; format: functional; set-up: scale not given: the % may be the effect or the level left
Hepatocyte = assay: Induction of glycogen synthesis in Sprague-Dawley rat hepatocytes at 20 uM after 4 hrs relative to control; format: functional
Mus musculus [7] = assay: Hypoglycemic activity in non-diabetic ICR mouse assessed as decrease in blood glucose at 10 mg/kg, po administered as single dose measured after 30 mins relative to control; format: functional; set-up: scale not given: the % may be the effect or the level left
Mus musculus [8] = assay: Antihyperglycemic activity in diabetic C57BL/6J ob/ob mouse assessed as decrease in blood glucose at 20 mg/kg, po administered as single dose measured after 120 mins relative to control; format: functional, organism-based; set-up: dose 20 mg/kg
Mus musculus [9] = assay: Antihyperglycemic activity in diabetic C57BL/6J ob/ob mouse assessed as decrease in blood glucose at 20 mg/kg, po administered as single dose measured after 180 mins relative to control; format: functional, organism-based; set-up: dose 20 mg/kg
Mus musculus [10] = assay: Antihyperglycemic activity in diabetic C57BL/6J ob/ob mouse assessed as decrease in blood glucose at 50 mg/kg, po administered as single dose measured after 120 mins relative to control; format: functional, organism-based; set-up: dose 50 mg/kg
Mus musculus [11] = assay: Hypoglycemic activity in non-diabetic ICR mouse assessed as decrease in blood glucose at 50 mg/kg, po administered as single dose measured after 30 mins relative to control; format: functional; set-up: scale not given: the % may be the effect or the level left
Mus musculus [12] = assay: Antihyperglycemic activity in diabetic C57BL/6J ob/ob mouse assessed as decrease in blood glucose at 50 mg/kg, po administered as single dose measured after 60 mins relative to control; format: functional, organism-based; set-up: dose 50 mg/kg
Mus musculus [13] = assay: Antihyperglycemic activity in diabetic C57BL/6J ob/ob mouse assessed as decrease in blood glucose at 50 mg/kg, po administered as single dose measured after 180 mins relative to control; format: functional, organism-based; set-up: dose 50 mg/kg
Mus musculus [14] = assay: Hypoglycemic activity in non-diabetic ICR mouse assessed as decrease in blood glucose at 3 mg/kg, po administered as single dose measured after 120 mins relative to control; format: functional, organism-based; set-up: dose 3 mg/kg
Mus musculus [15] = assay: Hypoglycemic activity in non-diabetic ICR mouse assessed as decrease in blood glucose at 50 mg/kg, po administered as single dose measured after 240 mins relative to control; format: functional, organism-based; set-up: dose 50 mg/kg

Compound: O=C(Nc1nc2c(s1)CCC2)C(CC1CCOCC1)c1ccc(S(=O)(=O)C2CC2)cc1 (stereo unspecified)
- EC50 (Hexokinase-4 [1]; read-out: EC50): 0.079 µM

Compound: CCc1csc(NC(=O)C(CC2CCOCC2)c2ccc(S(C)(=O)=O)cc2)n1 (stereo unspecified)
- EC50 (Hexokinase-4 [1]; read-out: EC50): 1 µM

Compound: CC(C)/C=C1\SC(NC(=O)C(CC2CCOCC2)c2ccc(S(=O)(=O)C3CC3)cc2)=NC1=O (stereo unspecified)
- EC50 (Hexokinase-4 [1]): Not Active

Compound: CC(C)Cc1csc(NC(=O)C(CC2CCOCC2)c2ccc(S(C)(=O)=O)cc2)n1 (stereo unspecified)
- EC50 (Hexokinase-4 [1]; read-out: EC50): 0.355 µM

Compound: COC[C@H](C)Oc1cc(O[C@@H](C)Cc2ccccc2)cc(C(=O)Nc2ccc(C(=O)O)cn2)c1
- bioavailability [2]: 100%
- bioavailability [3]: 90%

Compound: CC(C)(C)c1csc(NC(=O)C(CC2CCOCC2)c2ccc(S(C)(=O)=O)cc2)n1 (stereo unspecified)
- EC50 (Hexokinase-4 [1]; read-out: EC50): 2.93 µM

Compound: CS(=O)(=O)c1ccc(C(CC2CCOCC2)C(=O)Nc2nccs2)cc1 (stereo unspecified)
- EC50 (Hexokinase-4 [1]; read-out: EC50): 1.69 µM

Compound: CC(C)c1csc(NC(=O)[C@H](CC2CCOCC2)c2ccc(S(C)(=O)=O)cc2)n1
- EC50 (Hexokinase-4 [1]; read-out: EC50): 0.33 µM

Compound: CS(=O)(=O)c1ccc(C(CC2CCOCC2)C(=O)Nc2nc3cc(F)ccc3s2)cc1 (stereo unspecified)
- EC50 (Hexokinase-4 [1]): Not Active

Compound: C=C(C)c1csc(NC(=O)C(CC2CCOCC2)c2ccc(S(=O)(=O)C3CC3)cc2)n1 (stereo unspecified)
- EC50 (Hexokinase-4 [1]; read-out: EC50): 0.158 µM

Compound: CS(=O)(=O)c1ccc(C(CC2CCOCC2)C(=O)Nc2nc(C3CC3)cs2)cc1 (stereo unspecified)
- EC50 (Hexokinase-4 [1]; read-out: EC50): 1.35 µM

Compound: CC(C)c1csc(NC(=O)[C@H](CC2CCOCC2)c2ccc(S(=O)(=O)C3CC3)cc2)n1
- Activity (Mus musculus [4]): Active
- EC50 (Hexokinase-4 [5]): 0.026 µM
- Activity (Mus musculus [6]): 12.7%
- Activity (Hepatocyte): 83.7%
- Activity (Mus musculus [7]): 33.9%
- Activity (Mus musculus [8]): Active
- Activity (Mus musculus [9]): Active
- Activity (Mus musculus [10]): Active
- Activity (Mus musculus [11]): 40.7%
- Activity (Mus musculus [12]): Active
- Activity (Mus musculus [13]): Active
- Activity (Mus musculus [14]): Active
- Activity (Mus musculus [15]): Active

Compound: CC(C)c1nc(NC(=O)C(CC2CCOCC2)c2ccc(S(=O)(=O)C3CC3)cc2)sc1Br (stereo unspecified)
- EC50 (Hexokinase-4 [1]; read-out: EC50): 0.32 µM

Compound: CN1CCc2nc(NC(=O)C(CC3CCOCC3)c3ccc(S(=O)(=O)C4CC4)cc3)sc2C1 (stereo unspecified)
- EC50 (Hexokinase-4 [1]; read-out: EC50): 2.86 µM

Compound: CS(=O)(=O)c1ccc(C(CC2CCOCC2)C(=O)Nc2nc(-c3ccccc3)cs2)cc1 (stereo unspecified)
- EC50 (Hexokinase-4 [1]; read-out: EC50): 0.724 µM

Compound: Cc1nc(NC(=O)C(CC2CCOCC2)c2ccc(S(C)(=O)=O)cc2)sc1C(C)C (stereo unspecified)
- EC50 (Hexokinase-4 [1]): Not Active

Compound: CC(C)c1nc(NC(=O)C(CC2CCOCC2)c2ccc(S(=O)(=O)C3CC3)cc2)sc1I (stereo unspecified)
- EC50 (Hexokinase-4 [1]): Not Active

Compound: O=C1CSC(NC(=O)C(CC2CCOCC2)c2ccc(S(=O)(=O)C3CC3)cc2)=N1 (stereo unspecified)
- EC50 (Hexokinase-4 [1]; read-out: EC50): 4.68 µM

Compound: O=C1N=C(NC(=O)C(CC2CCOCC2)c2ccc(S(=O)(=O)C3CC3)cc2)S/C1=C\c1ccccc1 (stereo unspecified)
- EC50 (Hexokinase-4 [1]): Not Active

Compound: Cc1nc(NC(=O)C(CC2CCOCC2)c2ccc(S(C)(=O)=O)cc2)sc1C (stereo unspecified)
- EC50 (Hexokinase-4 [1]; read-out: EC50): 2.86 µM

Compound: CC(C)c1csc(NC(=O)C(CC2CCOCC2)c2ccc(S(C)(=O)=O)cc2)n1 (stereo unspecified)
- EC50 (Hexokinase-4 [1]; read-out: EC50): 0.31 µM

Compound: COc1ccc(-c2csc(NC(=O)C(CC3CCOCC3)c3ccc(S(C)(=O)=O)cc3)n2)cc1 (stereo unspecified)
- EC50 (Hexokinase-4 [1]; read-out: EC50): 1.04 µM

Compound: CS(=O)(=O)c1ccc(C(CC2CCOCC2)C(=O)Nc2nc(-c3ccc(F)cc3)cs2)cc1 (stereo unspecified)
- EC50 (Hexokinase-4 [1]; read-out: EC50): 1.18 µM
